Values quoted from earlier work as cited in PMC11376147 (Chemical Science, 2024).

Target: T1, DC-SIGN ECD (Homo sapiens, UniProt Q9NNX6)
T1 sequence (Q9NNX6 66-404): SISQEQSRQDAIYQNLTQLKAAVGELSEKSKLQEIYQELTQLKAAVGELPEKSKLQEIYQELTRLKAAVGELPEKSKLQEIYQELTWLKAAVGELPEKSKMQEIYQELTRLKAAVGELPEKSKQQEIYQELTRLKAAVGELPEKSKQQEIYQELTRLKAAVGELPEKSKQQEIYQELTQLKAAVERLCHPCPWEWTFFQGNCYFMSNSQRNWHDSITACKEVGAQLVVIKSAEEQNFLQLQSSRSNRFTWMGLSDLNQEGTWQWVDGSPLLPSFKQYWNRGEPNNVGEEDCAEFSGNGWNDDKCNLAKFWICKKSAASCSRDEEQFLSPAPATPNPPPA
Conditions: read-out: IC50 DC-SIGN; SPR inhibition, Spike surface; cited from earlier work

## OC[C@H]1OC(O)[C@@H](O)[C@@H](O)[C@@H]1O (stereo partly shown) [mannose]
  IC50: 3 mM
